In patent US20030138856A1, “Process for the measurement of dinophysistoxin and yessotoxin” (priority 2000, published 2003):

Tested on: E-cadherin and related antigens ECRA100 and ECRA135 in MCF-7 cells
Test: E-cadherin, ECRA135 and ECRA100 levels in cytosoluble extracts of toxin-treated MCF-7 cells (SDS-PAGE, anti-E-cadherin immunoblotting, densitometry)
Assay type: cell-based, human
Settings: for pattern of E-cadherin and related antigens on immunoblot (FIG. 1): 50 nM each agent, 18 hr at 37° C.; for concentration above which the pattern characteristic for each group of toxins is maintained when the two groups are present at the same time: both toxins together in the cell culture
Method: The MCF-7 cell line employed in these experiments has been obtained from the European Collection of Cell Cultures (ECACC No: 86012803; CB No: CB2705). Cells have been maintained at 37° C. in an atmosphere containing 5% CO2 in Petri dishes, in a culture medium composed of Dulbecco's modified MEM, containing foetal bovine serum (10%), nonessential aminoacids (1%) and 2 mM glutamine. Cell treatments have been carried out by adding appropriate aliquots of toxins from stock solutions prepared with absolute ethanol, and control cultures received an identical volume of vehicle. Working solutions of the different agents were obtained by serial dilutions of stock solutions, represented by 50 μM okadaic acid and 500 μM yessotoxin, respectively, and were stored at −20° C., in glass vials, protected from light. The ethanol concentrations in culture media has never been higher than 0.5% (v/v), which represents a concentration uncapable to affect the molecular parameters measured in these experiments.
The cellular extracts employed in the present analyses have been obtained from the cells adhering to culture vessels at the end of the indicated treatments, and the procedure was carried out at 4° C. Cells were washed three times with 20 mM phosphate buffer, pH 7.4, containing 0.15 M NaCl (PBS) and were then lysed by the addition of 25 μl of lysis buffer/cm^2 of culture surface area, and by keeping cells in contact with this solution for 10 minutes at 4° C. The lysis buffer was composed of PBS, containing: 0.5% (w/v) Na deoxycholate, 0.1% (w/v) Na dodecylsulfate (SDS), 1% (v/v) Triton X-100, 0.1 mg/ml phenylmethyl sulfonyl fluoride (PMSF). Cellular lysates were then centrifuged for 30 minutes at 16000 xg, and the supernatants of this centrifugation (cytosoluble extracts) were recovered and used to measure their total protein content by a […] method, using bicinchoninic acid (Smith P. K et al., 1985, Anal. Biochem., 150:76). Cytosoluble extracts were then brought to a final 2% SDS, 5% β-mercaptoethanol and 20% glycerol concentration, and were treated for 5 min at 100° C., before being used for protein fractionation by electrophoresis.
Samples, usually containing the same amount of protein, corresponding to about 50 μg, were subjected to polyacrylamide gel electrophoresis in the presence of SDS, according to the procedure by Laemmli (Laemmli U. K. , 1970, Nature, 227:680), using separating gels containing 10% acrylamide monomer. At the end of the electrophoresis (running time about 3 hr at 170 Volts), proteins were electrophoretically transferred to a nitrocellulose membrane (Protran B83), and were then stained with Ponceau S.
Aspecific binding sites on the membrane were then saturated by a 1 hr incubation at room temperature with a solution composed of 20 mM Tris-HCl, pH 7.5 at 25° C., 150 mM NaCl (TBS), containing 3% (w/v) low fat dry milk and 1 mM CaCl2. The membrane was then incubated with TBS containing 1 % (w/v) low fat dry milk, 1 mM CaCl2, and 2 μg of anti-E-cadherin antibody/ml buffer, for 1 hr at room temperature. At the end of the incubation the membrane was washed four times for 5 min and then a fifth time for 10 min with TBS containing 0.05% (w/v) Tween 20 (TBS-Tween buffer). The membrane was then incubated with TBS-Tween containing 1% (w/v) low fat dry milk and secondary antibody (horse radish peroxydase conjugated anti-mouse Ig antibody) at a 1:3000 dilution, for 1 hr at room temperature. At the end of this incubation, the membrane was washed as previously described, and the antigens were then detected by the ECL procedure and autoradiography, using Kodak X-Omat films. The electropherogram was then subjected to densitometric scanning, and the absorbance measured from the peak area was recorded and used to quantify the detected antigens. […]

[1] = MCF-7 cells treated with 50 nM OA
[2] = MCF-7 cells, YTX 1 μM, 24 hr incubation, n=4

C=C1[C@@H](O)[C@@H]2O[C@]3(CC[C@H](/C=C/[C@@H](C)[C@@H]4CC(C)=C[C@@]5(O[C@H](C[C@@](C)(O)C(=O)O)CC[C@H]5O)O4)O3)CC[C@H]2O[C@@H]1[C@@H](O)C[C@H](C)[C@H]1O[C@@]2(CCCCO2)CC[C@H]1C [OA, okadaic acid]
E-cadherin, % of total immunoreactivity [1]: 77.6±12.3% | ECRA100, % of total immunoreactivity [1]: 1.8±3.1% | ECRA135, % of total immunoreactivity [1]: 20.6±9.6% | relative total immunoreactivity (Σ), % of that in extracts from control cells [1]: 15.4±8.7% | pattern of E-cadherin and related antigens on immunoblot (FIG. 1) (MCF-7 cells): appearance of ECRA135 | OA concentration at which ECRA100 levels are minimal (MCF-7 cells, 20 hr): higher than 50 nM | OA concentration at which ECRA135 level is maximal (MCF-7 cells, 20 hr): 75 nM | OA concentration at which detection of ECRA135 starts (MCF-7 cells, 20 hr): 20 to 30 nM | OA concentration at which the decrease in immunoreactive material (Σ) can be detected (MCF-7 cells, 20 hr): higher than 10 nM | OA concentration at which the decrease in immunoreactive material (Σ) is maximal (MCF-7 cells, 20 hr): higher than 75 nM | equivalent OA concentrations within which proportionality in the assay is kept (MCF-7 cells, 20 hr): 30 to 75 nM | equivalent OA concentrations within which proportionality in the assay is kept, as mass concentration (MCF-7 cells, 20 hr, corresponding to 30-75 nM): 25-60 ng OA/ml | concentration above which the pattern characteristic for each group of toxins is maintained when the two groups are present at the same time: higher than 35 nM

C=CCC(=C)/C=C/[C@@](C)(O)[C@H]1O[C@@H]2C[C@@H]3O[C@@H]4C[C@@H]5O[C@@H]6C[C@@H]7O[C@@H]8C[C@@H]9O[C@@H]%10C[C@@H]%11O[C@](C)(CCOS(=O)(=O)O)[C@@H](OS(=O)(=O)O)C[C@H]%11O[C@H]%10C[C@H]9O[C@H]8CC[C@@]7(C)O[C@@]6(C)CC[C@H](C)[C@H]5O[C@H]4C[C@@]3(C)O[C@H]2CC1=C [YTX, yessotoxin]
ECRA135 detection after treatment with YTX alone (MCF-7 cells): never been detected | pattern of E-cadherin and related antigens on immunoblot (FIG. 1) (MCF-7 cells): most immunoreactivity is associated with the 100 kDa (101.9±3.2 kDa) band | YTX concentration at which the increase in immunoreactive material (Σ) is detectable (MCF-7 cells, 20 hr): about 0.2 nM | YTX concentration at which the increase in immunoreactive material reaches maximal levels (MCF-7 cells, 20 hr): ≥ 1 nM | equivalent YTX concentrations within which proportionality in the assay is maintained, as mass concentration (MCF-7 cells, 20 hr, corresponding to 0.2-0.5 nM): 240-600 pg YTX/ml | ECRA135 detection (MCF-7 cells, YTX 1 μM, 24 hr incubation): undetectable | E-cadherin, share of total immunoreactivity [2]: 52.0±1.7 | ECRA100, share of total immunoreactivity [2]: 48.0±1.7 | relative total immunoreactivity (Σ), as compared to controls [2]: 190±32% | E-cadherin level, percentage of total immunoreactivity (E-cadherin+ECRA100+ECRA135) of the sample ([YTX] ≧0.5 nME/[DTX] <25 nME): 40-60% | ECRA100 level, percentage of total immunoreactivity of the sample ([YTX] ≧0.5 nME/[DTX] <25 nME): 40-60% | relative total immunoreactivity (Σ), percentage of total immunoreactivity in the controls ([YTX] ≧0.5 nME/[DTX] <25 nME): 150-250% | concentration above which the pattern characteristic for each group of toxins is maintained when the two groups are present at the same time: > 0.4 nM
